According to US20060173183A1, “Multicyclic bis-amide MMP inhibitors” (Alantos Pharmaceuticals, Inc.,, priority 2004, published 2006):

target: MMP-13 (Homo sapiens, UniProt P45452); assay: Assay for determining MMP-13 inhibition (fluorogenic substrate); format: biochemical; details: Table 1, Summary of MMP-13 Activity for Compounds of Formula I; bounds only
Method: The MMP-13 inhibiting activity of the multicyclic bis-amide MMP-13 inhibiting compounds of the present invention may be measured using any suitable assay known in the art. A standard in vitro assay for MMP-13 inhibiting activity is described in Example 3000.
Assay for Determining MMP-13 Inhibition
The typical assay for MMP-13 activity is carried out in assay buffer comprised of 50 mM Tris, pH 7.5, 150 mM NaCl, 5 mM CaCl2 and 0.05% Brij-35. Different concentrations of tested compounds are prepared in assay buffer in 50 μL aliquots. 10 μL of 40 nM stock solution of MMP-13 enzyme is added to the compound solution. The mixture of enzyme and compound in assay buffer is thoroughly mixed and incubated for 20 minutes at room temperature. Upon the completion of incubation, the assay is started by addition of 40 μL of 12.5 μM stock solution of MMP-13 fluorogenic substrate (Calbiochem Cat. No. 444235). The time-dependent increase in fluorescence is measured at the 325 nm excitation and 393 nm emission by automatic plate multireader. The IC50 values are calculated from the initial reaction rates. Selectivity assays were run in a similar manner using MMP-1, MMP-14 and TACE.

Structure (SMILES) | IC50
COc1cccc(CNC(=O)c2cc(C(=O)N[C@H]3CCc4cc(-c5noc(=O)[nH]5)ccc43)ncn2)c1 [Ex. 2407] | < 5 nM
Cc1cc(CNC(=O)c2cc(C(=O)NC3CCc4cc(-c5nnn[nH]5)ccc43)ncn2)ccc1F (stereo not shown) [Ex. 1] | > 5 nM
COc1cc(CNC(=O)c2cc(C(=O)N[C@H]3CCc4c3ccc(C(=O)O)c4C)ncn2)ccc1F [Ex. 2562] | < 5 nM
Cc1cc(CNC(=O)c2cc(C(=O)N[C@H]3CCc4cc(-c5nnn[nH]5)ccc43)ncn2)ccc1F [Ex. 2303] | > 5 nM
Cc1cc(CNC(=O)c2cc(C(=O)N[C@H]3CCc4cc(C(=O)O)ccc43)nc(N)n2)ccc1F [Ex. 2702] | < 5 nM
Cc1c(C(=O)O)ccc2c1CC[C@@H]2NC(=O)c1cc(C(=O)NCc2ccc3c(c2)CN(c2c(N)c(=O)c2=O)CC3)ncn1 [Ex. 2539] | < 5 nM
Cc1cc(CNC(=O)c2cc(C(=O)N[C@H]3CCc4c3ccc(C(=O)O)c4C)ncn2)ccc1F [Ex. 2522] | < 5 nM
Cc1c(-c2nnn[nH]2)ccc2c1CC[C@@H]2NC(=O)c1cc(C(=O)NCc2ccc3c(c2)CN(c2c(N)c(=O)c2=O)CC3)ncn1 [Ex. 2328] | < 5 nM
COc1cccc(CNC(=O)c2cc(C(=O)N[C@H]3CCc4cc(-c5nnn[nH]5)ccc43)ncn2)c1 [Ex. 2308] | > 5 nM
Cc1cc(CNC(=O)c2cc(C(=O)NC3CCCc4cc(-c5nnn[nH]5)ccc43)ncn2)ccc1F (stereo not shown) [Ex. 2301] | > 5 nM
